This note sets out measurements from ChEMBL document CHEMBL4402613, “Targeting ALK2: An Open Science Approach to Developing Therapeutics for the Treatment of Diffuse Intrinsic Pontine Glioma” (J Med Chem, 2020).

In data set [1] the target is T1, TGF-beta receptor type-1 (Homo sapiens, UniProt P36897).
T1 sequence (P36897 whole entry): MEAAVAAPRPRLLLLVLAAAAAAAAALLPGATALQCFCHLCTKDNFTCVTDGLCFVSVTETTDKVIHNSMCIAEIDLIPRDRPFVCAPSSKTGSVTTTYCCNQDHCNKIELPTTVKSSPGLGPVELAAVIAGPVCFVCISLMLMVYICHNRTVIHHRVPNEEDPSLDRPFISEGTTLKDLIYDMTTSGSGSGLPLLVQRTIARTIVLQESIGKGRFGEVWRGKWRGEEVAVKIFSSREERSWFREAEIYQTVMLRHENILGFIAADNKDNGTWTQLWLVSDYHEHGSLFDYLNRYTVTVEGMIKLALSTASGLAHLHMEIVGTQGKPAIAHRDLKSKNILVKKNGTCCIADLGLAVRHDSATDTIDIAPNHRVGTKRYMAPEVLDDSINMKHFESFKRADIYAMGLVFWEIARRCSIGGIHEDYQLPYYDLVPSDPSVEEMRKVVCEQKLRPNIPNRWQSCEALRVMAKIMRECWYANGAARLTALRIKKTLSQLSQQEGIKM
It is filed as single protein.
Description: Inhibition of human ALK5 using casein as substrate in presence of 10 uM [gamma33P] ATP by radioactive assay

The target in data set [2] is T2, Activin receptor type-1 (Homo sapiens, UniProt Q04771).
T2 sequence (Q04771 whole entry): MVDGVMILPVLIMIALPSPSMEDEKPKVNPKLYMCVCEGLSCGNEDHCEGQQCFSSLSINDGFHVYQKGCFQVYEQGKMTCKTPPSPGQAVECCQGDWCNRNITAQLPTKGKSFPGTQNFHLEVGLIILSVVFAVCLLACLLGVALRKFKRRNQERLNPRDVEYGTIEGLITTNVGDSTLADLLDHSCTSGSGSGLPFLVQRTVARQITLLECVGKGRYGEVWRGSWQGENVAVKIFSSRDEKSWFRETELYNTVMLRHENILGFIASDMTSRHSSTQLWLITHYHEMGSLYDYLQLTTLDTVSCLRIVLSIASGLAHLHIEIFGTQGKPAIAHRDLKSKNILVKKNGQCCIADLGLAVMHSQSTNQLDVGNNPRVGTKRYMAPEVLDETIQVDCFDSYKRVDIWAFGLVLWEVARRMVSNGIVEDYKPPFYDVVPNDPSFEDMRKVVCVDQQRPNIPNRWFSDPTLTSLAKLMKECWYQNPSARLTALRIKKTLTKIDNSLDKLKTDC
Description: Inhibition of C-terminal nanoluciferase-fused ALK2 (unknown origin) expressed in HEK293 cells incubated for 2 hrs followed by NanoBRET NanoGlo Substrate addition by NanoBRET assay. It is filed as cell-based.

Data set [3] concerns the target T1, TGF-beta receptor type-1. It is filed as cell-based, HEK293.
Description: Inhibition of ALK5 (unknown origin) expressed in HEK293 cells transfected with CAGA-luciferase and Renilla luciferase reporter measured after 24 hrs by dual luciferase reporter assay
Data set [4] concerns the target Activin receptor type-1-like (Homo sapiens) (UniProt P37023). Description: Inhibition of ALK1 (unknown origin) at 1 uM.
The target of data set [5] is Bone morphogenetic protein receptor type-1A (Homo sapiens) (UniProt P36894). Nature of the data set: Inhibition of ALK3 (unknown origin) at 1 uM.
Chain of Bone morphogenetic protein receptor type-1A (Homo sapiens) (P36894 whole entry): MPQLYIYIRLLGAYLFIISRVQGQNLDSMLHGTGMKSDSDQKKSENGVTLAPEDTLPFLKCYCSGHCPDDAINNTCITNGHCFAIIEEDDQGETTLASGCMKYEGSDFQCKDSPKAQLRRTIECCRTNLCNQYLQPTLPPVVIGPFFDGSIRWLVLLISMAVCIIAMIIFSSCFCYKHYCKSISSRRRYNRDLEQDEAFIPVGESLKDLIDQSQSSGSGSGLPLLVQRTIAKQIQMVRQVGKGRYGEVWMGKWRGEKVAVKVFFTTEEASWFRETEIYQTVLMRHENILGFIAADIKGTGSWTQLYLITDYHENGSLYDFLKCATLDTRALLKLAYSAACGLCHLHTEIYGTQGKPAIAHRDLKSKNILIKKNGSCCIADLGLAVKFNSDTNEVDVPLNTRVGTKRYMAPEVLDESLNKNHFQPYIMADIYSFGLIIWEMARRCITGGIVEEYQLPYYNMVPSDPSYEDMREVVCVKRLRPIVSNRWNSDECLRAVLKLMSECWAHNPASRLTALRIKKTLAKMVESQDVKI
The target of data set [6] is Bone morphogenetic protein receptor type-1B (Homo sapiens) (UniProt O00238). Description: Inhibition of ALK6 (unknown origin) at 1 uM.
Chain of Bone morphogenetic protein receptor type-1B (Homo sapiens) (O00238 whole entry): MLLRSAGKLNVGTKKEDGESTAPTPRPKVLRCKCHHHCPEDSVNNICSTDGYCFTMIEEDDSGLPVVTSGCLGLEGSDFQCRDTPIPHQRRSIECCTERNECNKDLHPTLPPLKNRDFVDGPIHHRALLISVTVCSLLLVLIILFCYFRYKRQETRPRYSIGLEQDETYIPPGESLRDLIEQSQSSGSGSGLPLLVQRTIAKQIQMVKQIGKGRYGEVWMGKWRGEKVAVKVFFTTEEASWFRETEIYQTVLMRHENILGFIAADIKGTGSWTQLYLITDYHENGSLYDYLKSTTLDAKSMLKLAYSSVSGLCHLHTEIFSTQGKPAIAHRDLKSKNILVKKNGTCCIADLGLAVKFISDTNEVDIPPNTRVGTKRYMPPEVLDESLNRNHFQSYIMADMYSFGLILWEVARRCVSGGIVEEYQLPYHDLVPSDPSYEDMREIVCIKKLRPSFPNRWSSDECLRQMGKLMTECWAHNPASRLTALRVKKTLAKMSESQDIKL
The target of data set [7] is T3, Serine/threonine-protein kinase A-Raf (Homo sapiens) (UniProt P10398).
T3 sequence (whole entry): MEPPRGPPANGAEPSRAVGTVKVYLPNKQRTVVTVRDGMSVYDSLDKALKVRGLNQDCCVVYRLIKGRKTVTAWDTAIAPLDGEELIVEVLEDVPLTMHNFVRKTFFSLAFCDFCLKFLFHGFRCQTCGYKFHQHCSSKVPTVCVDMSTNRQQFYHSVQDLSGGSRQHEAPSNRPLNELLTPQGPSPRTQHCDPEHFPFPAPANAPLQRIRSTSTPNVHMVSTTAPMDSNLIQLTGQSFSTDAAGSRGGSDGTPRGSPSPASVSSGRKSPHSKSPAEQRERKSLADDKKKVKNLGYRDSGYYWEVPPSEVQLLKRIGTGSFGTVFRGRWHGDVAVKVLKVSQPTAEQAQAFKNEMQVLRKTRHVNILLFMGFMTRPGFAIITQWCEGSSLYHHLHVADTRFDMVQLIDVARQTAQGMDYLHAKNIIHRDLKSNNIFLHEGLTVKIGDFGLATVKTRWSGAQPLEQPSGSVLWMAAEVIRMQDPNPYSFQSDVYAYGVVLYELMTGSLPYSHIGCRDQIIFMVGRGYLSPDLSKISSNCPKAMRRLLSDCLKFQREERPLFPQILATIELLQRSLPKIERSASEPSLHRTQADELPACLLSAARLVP
Nature of the data set: Inhibition of ARAF (unknown origin) at 1 uM.

In data set [8] the target is Mitogen-activated protein kinase kinase kinase kinase 4 (Homo sapiens) (UniProt O95819). Description: Inhibition of MAP4K4 (unknown origin) at 1 uM.
Chain of Mitogen-activated protein kinase kinase kinase kinase 4 (Homo sapiens) (O95819 2-1239 limits assumed): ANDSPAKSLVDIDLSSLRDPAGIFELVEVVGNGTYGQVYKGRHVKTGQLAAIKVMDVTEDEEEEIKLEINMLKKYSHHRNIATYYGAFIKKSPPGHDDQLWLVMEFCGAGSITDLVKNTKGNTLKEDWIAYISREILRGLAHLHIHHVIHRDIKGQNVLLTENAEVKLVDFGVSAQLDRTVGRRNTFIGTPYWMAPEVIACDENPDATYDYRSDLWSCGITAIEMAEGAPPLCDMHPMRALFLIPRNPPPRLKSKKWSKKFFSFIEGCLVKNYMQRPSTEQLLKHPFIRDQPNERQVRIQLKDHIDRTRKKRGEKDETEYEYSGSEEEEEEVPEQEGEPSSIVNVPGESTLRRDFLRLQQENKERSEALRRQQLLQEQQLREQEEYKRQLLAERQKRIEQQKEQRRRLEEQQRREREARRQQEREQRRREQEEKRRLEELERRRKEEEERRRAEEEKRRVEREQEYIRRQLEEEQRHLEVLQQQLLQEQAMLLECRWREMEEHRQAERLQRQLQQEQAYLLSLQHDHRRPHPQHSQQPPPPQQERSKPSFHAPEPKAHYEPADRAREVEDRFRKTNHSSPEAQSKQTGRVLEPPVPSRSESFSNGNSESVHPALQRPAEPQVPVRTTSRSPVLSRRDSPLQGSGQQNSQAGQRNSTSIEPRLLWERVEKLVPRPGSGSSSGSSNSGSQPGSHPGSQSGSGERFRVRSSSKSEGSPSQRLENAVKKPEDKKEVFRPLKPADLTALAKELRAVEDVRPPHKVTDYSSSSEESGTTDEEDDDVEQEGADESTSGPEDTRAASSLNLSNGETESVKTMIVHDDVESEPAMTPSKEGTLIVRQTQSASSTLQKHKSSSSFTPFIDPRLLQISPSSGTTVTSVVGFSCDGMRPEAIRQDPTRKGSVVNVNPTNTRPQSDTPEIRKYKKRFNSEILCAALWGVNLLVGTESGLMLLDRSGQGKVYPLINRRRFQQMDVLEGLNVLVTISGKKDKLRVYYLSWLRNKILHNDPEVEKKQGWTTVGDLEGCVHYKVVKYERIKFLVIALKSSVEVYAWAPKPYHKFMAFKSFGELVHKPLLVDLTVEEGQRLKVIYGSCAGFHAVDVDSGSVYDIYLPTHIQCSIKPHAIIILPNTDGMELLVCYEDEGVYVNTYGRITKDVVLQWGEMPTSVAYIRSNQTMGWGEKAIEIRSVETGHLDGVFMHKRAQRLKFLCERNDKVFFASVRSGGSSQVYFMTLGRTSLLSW
Data set [9] deals with Misshapen-like kinase 1 (Homo sapiens) (UniProt Q8N4C8). Nature of the data set: Inhibition of MINK (unknown origin) at 1 uM.
Chain of Misshapen-like kinase 1 (Homo sapiens) (Q8N4C8 whole entry, looked up): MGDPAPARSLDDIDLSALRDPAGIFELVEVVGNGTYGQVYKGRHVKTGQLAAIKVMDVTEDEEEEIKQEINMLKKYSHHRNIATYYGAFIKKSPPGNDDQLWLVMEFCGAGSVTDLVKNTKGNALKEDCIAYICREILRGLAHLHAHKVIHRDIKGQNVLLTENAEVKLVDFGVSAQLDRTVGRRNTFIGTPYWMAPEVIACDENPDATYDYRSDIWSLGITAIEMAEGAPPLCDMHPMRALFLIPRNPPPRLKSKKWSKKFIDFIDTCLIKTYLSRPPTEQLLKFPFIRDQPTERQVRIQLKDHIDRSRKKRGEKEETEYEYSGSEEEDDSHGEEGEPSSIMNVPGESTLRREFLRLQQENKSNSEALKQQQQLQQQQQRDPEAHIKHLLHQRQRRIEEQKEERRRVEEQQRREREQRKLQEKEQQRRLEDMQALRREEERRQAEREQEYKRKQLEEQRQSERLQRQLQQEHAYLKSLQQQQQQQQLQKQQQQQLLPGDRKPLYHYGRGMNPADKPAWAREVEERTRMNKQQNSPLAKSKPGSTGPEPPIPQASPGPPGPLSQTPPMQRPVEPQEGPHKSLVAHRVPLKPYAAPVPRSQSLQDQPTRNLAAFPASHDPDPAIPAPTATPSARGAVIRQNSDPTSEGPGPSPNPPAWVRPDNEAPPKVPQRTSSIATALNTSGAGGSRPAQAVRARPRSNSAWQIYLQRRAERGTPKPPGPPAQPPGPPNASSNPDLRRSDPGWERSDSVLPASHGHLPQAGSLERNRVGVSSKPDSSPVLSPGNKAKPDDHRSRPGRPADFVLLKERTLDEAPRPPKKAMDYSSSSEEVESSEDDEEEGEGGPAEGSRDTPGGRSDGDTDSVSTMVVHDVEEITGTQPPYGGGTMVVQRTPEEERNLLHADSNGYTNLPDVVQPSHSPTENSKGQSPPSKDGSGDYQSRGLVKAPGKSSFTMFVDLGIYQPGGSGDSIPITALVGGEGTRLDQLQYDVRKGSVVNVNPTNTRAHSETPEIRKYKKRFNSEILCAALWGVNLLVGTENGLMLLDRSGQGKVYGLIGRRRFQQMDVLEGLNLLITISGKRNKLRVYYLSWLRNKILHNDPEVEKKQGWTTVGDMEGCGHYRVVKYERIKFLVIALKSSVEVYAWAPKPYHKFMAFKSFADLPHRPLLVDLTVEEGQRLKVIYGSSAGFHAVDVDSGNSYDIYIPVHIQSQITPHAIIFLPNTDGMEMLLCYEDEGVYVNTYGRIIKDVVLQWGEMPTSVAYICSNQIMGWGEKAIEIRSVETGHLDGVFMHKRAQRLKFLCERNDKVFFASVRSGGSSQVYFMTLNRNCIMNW
For data set [10], the target named is T4, Non-receptor tyrosine-protein kinase TNK1 (Homo sapiens) (UniProt Q13470).
T4 sequence (whole entry): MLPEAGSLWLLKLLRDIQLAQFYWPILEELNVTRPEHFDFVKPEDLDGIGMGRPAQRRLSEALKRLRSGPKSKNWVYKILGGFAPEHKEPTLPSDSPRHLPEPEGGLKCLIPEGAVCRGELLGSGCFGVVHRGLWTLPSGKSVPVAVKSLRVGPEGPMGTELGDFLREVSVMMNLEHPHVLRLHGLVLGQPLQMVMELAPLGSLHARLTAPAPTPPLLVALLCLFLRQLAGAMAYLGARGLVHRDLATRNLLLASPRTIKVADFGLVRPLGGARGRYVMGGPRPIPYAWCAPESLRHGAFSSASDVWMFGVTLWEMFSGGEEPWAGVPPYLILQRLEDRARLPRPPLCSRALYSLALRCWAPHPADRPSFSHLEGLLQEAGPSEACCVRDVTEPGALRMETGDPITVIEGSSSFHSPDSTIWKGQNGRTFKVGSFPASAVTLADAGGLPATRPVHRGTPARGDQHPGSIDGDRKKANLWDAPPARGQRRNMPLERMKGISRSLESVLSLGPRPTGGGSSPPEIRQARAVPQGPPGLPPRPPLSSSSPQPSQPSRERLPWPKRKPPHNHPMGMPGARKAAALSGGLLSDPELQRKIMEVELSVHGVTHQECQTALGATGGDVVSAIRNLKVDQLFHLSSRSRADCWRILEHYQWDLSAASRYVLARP
Description: Inhibition of TNK1 (unknown origin) at 1 uM.

Data set [11] deals with T2, Activin receptor type-1.
Description: Inhibition of human ALK2 using casein as substrate in presence of 10 uM [gamma33P] ATP by radioactive assay
The target of data set [12] is Voltage-gated inwardly rectifying potassium channel KCNH2 (Homo sapiens, UniProt Q12809).
Description: Inhibition of human ERG expressed in HEK293 cells measured after 5 mins by whole cell patch clamp method
For data set [13] the following is noted: mouse, microsomes, 1 h, 1 µM.
Description: Microsomal stability in CD-1 mouse liver microsomes assessed as parent compound remaining at 1 uM and 37 degree C measured after 60 mins in presence of NADP+ by LC-QTOF/MS analysis
For data set [14] the following is noted: human, microsomes, 1 h, 1 µM.
Description: Microsomal stability in human liver microsomes assessed as parent compound remaining at 1 uM and 37 degree C measured after 60 mins in presence of NADP+ by LC-QTOF/MS analysis
Data set [15] can be described thus: in vitro. Conditions: human, Caco-2.
Description: Apparent permeability across apical to basolateral membrane in human Caco2 cells at 5 uM incubated for 120 mins in orbital shaker by LC-QTOF/MS analysis
Data set [16] is described as follows: in vitro. Conditions: human, Caco-2. The source holds these as a separate data set.
Description: Apparent permeability across basolateral to apical membrane in human Caco2 cells at 5 uM incubated for 120 mins in orbital shaker by LC-QTOF/MS analysis

SMILES strings stand for the structures. Calls of active or inactive are those of the source. No cut-off for these calls is given here.

Chain of Activin receptor type-1-like (Homo sapiens) (P37023 whole entry): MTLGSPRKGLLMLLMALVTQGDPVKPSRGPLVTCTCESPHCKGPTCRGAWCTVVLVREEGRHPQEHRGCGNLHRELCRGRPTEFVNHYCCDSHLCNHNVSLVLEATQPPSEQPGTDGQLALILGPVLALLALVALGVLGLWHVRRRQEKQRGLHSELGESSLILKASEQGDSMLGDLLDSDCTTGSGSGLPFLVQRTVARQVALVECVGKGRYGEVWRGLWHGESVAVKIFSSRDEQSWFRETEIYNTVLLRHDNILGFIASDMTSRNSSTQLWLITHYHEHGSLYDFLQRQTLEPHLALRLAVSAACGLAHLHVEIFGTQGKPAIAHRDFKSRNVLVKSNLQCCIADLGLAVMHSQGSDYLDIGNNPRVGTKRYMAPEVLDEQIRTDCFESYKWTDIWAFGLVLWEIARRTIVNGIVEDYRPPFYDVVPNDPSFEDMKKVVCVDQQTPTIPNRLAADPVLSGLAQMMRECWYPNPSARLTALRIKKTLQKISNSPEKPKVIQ

Consider `COc1cc(-c2cncc(-c3ccc(N4C[C@@H](C)N(C)[C@@H](C)C4)cc3)c2C)cc(F)c1C(N)=O`, for which the IC50 at TGF-beta receptor type-1 [1] is 2910 nM; on Activin receptor type-1 [2], 100 nM; at TGF-beta receptor type-1 [3] it was over 5 µM; against Activin receptor type-1 [11], 10 nM; in [12], 19 µM. Moreover, the inhibition result in data set [4], in data set [5], in [6], in [7], in data set [8] and in [9] was “Active” each time. The inhibition result in [10] is “Active”. Besides, the Stability entry in data set [13] and in data set [14] was “Stable” in each case. In “in vitro [15]”, this compound had a Papp A→B at 2 h, 5 µM of 4.3 ×10⁻⁶ cm/s. In addition, the Papp B→A at 2 h, 5 µM in “in vitro [16]” amounted to 14.5 ×10⁻⁶ cm/s.
